From the supplement of paper PMC9663587

Legend:
Test in all cases: GRmax, 72 h; higher = less effect;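 also: breast cell lines in 384-well plates, nine doses across a 10^4 range, Dye Drop imaging of viable cells vs DMSO and time-zero plates, GR 0 means no net growth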
SUM149 = test system: SUM149
SUM159 = test system: SUM159
CAMA1 = test system: CAMA1
MDAMB330 = test system: MDAMB330
MCF10A = test system: MCF10A
MDAMB436 = test system: MDAMB436
HCC1569 = test system: HCC1569
ZR7530 = test system: ZR7530
184A1 = test system: 184A1
HCC38 = test system: HCC38
PDX1328 = test system: PDX1328
MDAMB468 = test system: MDAMB468

| Structure (SMILES) | GRmax, 72 h (SUM149) | GRmax, 72 h (SUM159) | GRmax, 72 h (CAMA1) | GRmax, 72 h (MDAMB330) | GRmax, 72 h (MCF10A) | GRmax, 72 h (MDAMB436) | GRmax, 72 h (HCC1569) | GRmax, 72 h (ZR7530) | GRmax, 72 h (184A1) | GRmax, 72 h (HCC38) | GRmax, 72 h (PDX1328) | GRmax, 72 h (MDAMB468) |
| --- | --- | --- | --- | --- | --- | --- | --- | --- | --- | --- | --- | --- |
| COc1ccc2c(c1)[C@]1(C[C@H]1c1ccc3c(/C=C/c4ccc(CN5C[C@@H](C)O[C@@H](C)C5)cc4)n[nH]c3c1)C(=O)N2 | -0.0713 GR | -0.119 GR | -0.0117 GR | 0.284 GR | -0.0342 GR | -0.226 GR | -0.0697 GR | 0.174 GR | 0.0075 GR | -0.403 GR | -0.0338 GR | -0.38 GR |
| COc1cccc(OCCCN)c1-c1cc(Nc2cnc(C#N)cn2)n[nH]1 | -0.453 GR | -0.0281 GR | 0.084 GR | -0.183 GR | 0.351 GR | 0.0078 GR | -0.0272 GR | 0.561 GR | 0.529 GR | -0.556 GR | 0.111 GR | 0.6 GR |
| CC(=O)Nc1cccc(-n2c(=O)n(C3CC3)c(=O)c3c(Nc4ccc(I)cc4F)n(C)c(=O)c(C)c32)c1 (max 1 µM) | 0.237 GR | 0.404 GR | 0.553 GR | 0.251 GR | 0.225 GR | 0.557 GR | 0.522 GR | 0.405 GR | 0.187 GR | 0.185 GR | 0.661 GR | 0.407 GR |
| CCc1cnn2c(NCc3ccc[n+]([O-])c3)cc(N3CCCC[C@H]3CCO)nc12 (max 1 µM) | -0.566 GR | -0.122 GR | -0.485 GR | -0.504 GR | -0.23 GR | -0.144 GR | -0.245 GR | -0.714 GR | -0.33 GR | -0.442 GR | -0.577 GR | -0.413 GR |
| CC(=O)c1c(C)c2cnc(Nc3ccc(N4CCNCC4)cn3)nc2n(C2CCCC2)c1=O (max 3.162 µM) | 0.485 GR | 0.45 GR | 0.282 GR | 0.207 GR | 0.454 GR | 1.06 GR | 0.983 GR | 0.266 GR | 0.128 GR | 0.147 GR | 0.361 GR | 1.05 GR |
| CCc1cncnc1N1CCN(Cc2nc3ccc(C(F)(F)F)cc3[nH]2)CC1 (max 10 µM) | 0.746 GR | 0.846 GR | 0.655 GR | 0.621 GR | 0.721 GR | 0.194 GR | 0.7 GR | 0.113 GR | 1.02 GR | 0.976 GR | 0.619 GR | 0.0813 GR |
| CCCCOc1c(C(=O)c2c(F)cc(C)cc2F)c[nH]c2nncc1-2 (max 10 µM) | 0.0975 GR | 0.26 GR | -0.0904 GR | 0.129 GR | 0.0637 GR | 0.264 GR | 0.0899 GR | 0.212 GR | -0.0413 GR | -0.0129 GR | 0.773 GR | -0.112 GR |
| CCN1CCN(Cc2ccc(Nc3ncc(F)c(-c4cc(F)c5nc(C)n(C(C)C)c5c4)n3)nc2)CC1 (max 10 µM) | 0.0962 GR | -0.0575 GR | 0.222 GR | -0.0152 GR | 0.151 GR | -0.333 GR | 0.116 GR | 0.125 GR | -0.105 GR | -0.327 GR | -0.65 GR | -0.288 GR |
| CNc1nc(-c2ccc3c(N)n[nH]c3c2)cc(N2C[C@@H](C(=O)NC3CCCCC3)CC[C@H]2C)n1 (max 10 µM) | 0.698 GR | 0.6 GR | 0.716 GR | -0.738 GR | 0.918 GR | 0.811 GR | 0.673 GR | 0.348 GR | 0.572 GR | 0.767 GR | 0.545 GR | 0.531 GR |
| CO[C@@H](C)Cn1c(=O)n(C)c2cnc3ccc(-c4cncc(C(C)(C)O)c4)cc3c21 (max 10 µM) | -0.0342 GR | 0.0637 GR | -0.458 GR | -0.799 GR | 0.108 GR | 0.323 GR | -0.0783 GR | -0.36 GR | 0.0943 GR | -0.0301 GR | 0.0061 GR | -0.211 GR |
| Cc1nn(C)c(COc2ccc(N3CCN(S(=O)(=O)N(C)C)CC3)cc2)c1-c1cccc2c(CCCOc3cccc4ccccc34)c(C(=O)O)n(CCN3CCOCC3)c12 (max 10 µM) | 0.391 GR | 0.83 GR | 0.876 GR | 0.881 GR | 0.953 GR | 0.873 GR | 0.928 GR | 0.576 GR | -0.164 GR | 0.887 GR | 0.873 GR | 0.93 GR |
| CN(C)CC[C@H](CSc1ccccc1)Nc1ccc(S(=O)(=O)NC(=O)c2ccc(N3CCN(Cc4ccccc4-c4ccc(Cl)cc4)CC3)cc2)cc1[N+](=O)[O-] [ABT-737] (max 10 µM) | -0.28 GR | 0.781 GR | 0.864 GR | -0.104 GR | 0.817 GR | 0.815 GR | -0.406 GR | 0.552 GR | -0.0149 GR | -0.421 GR | -0.678 GR | 0.142 GR |
